Measurements taken from patent US12370170B2, “Composition comprising naphthoquinone-based compound as active ingredient, for preventing or ameliorating fatigue, cachexia, pain, cognitive decline and hematopoietic stem cell reduction which are side effects related to anticancer drug treatment” (NADIANBIO LTD., priority 2016, dated 2025).

Assay: Muscle loss (body weight, gastrocnemius muscle weight) in cyclophosphamide induced animal model
Assay type: in vivo, C57BL/6 mice
Conditions: cyclophosphamide 150 mg/kg+200 mg/kg i.p.; dunnione 20 mg/kg oral daily from 3 days before; 48 hours after
Procedure: In this invention, 11 weeks old C57BL/6 mice were used. All the mice used in the experiments of the invention were raised in an aseptic animal room at the temperature of 22˜26 L with the humidity of 55˜60%. The mice were allowed to take general solid feed (SAMTACO Co., Ltd., Korea) and water freely. The mice were adapted for 1 week before the experiment. All the experiments were performed after obtaining approval from the clinical trial management committee in accordance with the laboratory animal care and ethics regulations of Wonkwang University. The mouse animal model of the present invention was treated with different anticancer drugs. Particularly, one kind of anticancer drug was administered intraperitoneally one time or more, or several kinds of anticancer drugs were administered once or more times or at different concentrations, leading to the establishment of the animal model of the invention. […]
In the cyclophosphamide (150 mg/kg+200 mg/kg) induced animal model prepared by the same manner as described in Example 9, the changes of body weight and gastrocnemius muscle weight were measured after the drug treatment in order to investigate the regulatory effect of dunnione on muscle loss.

SMILES: CC1OC2=C(C(=O)C(=O)c3ccccc32)C1(C)C (centres unmarked) [dunnione, 2,3-dihydro-2,3,3-trimethyl naphtho [1,2-b]furan-4,5-dione]
- reduction of gastrocnemius muscle weight and gastrocnemius muscle weight change: significantly restored
- weight loss (body weight): significantly restored
